Article PMC3404012, “N-Terminally Glutamate-Substituted Analogue of Gramicidin A as Protonophore and Selective Mitochondrial Uncoupler” (PLoS ONE, 2012)

Experiments:
[1] = test system: rat kidney cell culture (renal tubular epithelium cells); format: cell-based
Method: (§1) In subsequent series of experiments, the uncoupling action of [Glu1]gA was tested in rat kidney cell culture loaded with the potential sensitive dye tetramethylrhodamine ethyl ester (TMRE). […] By contrast, the parent gA depolarized mitochondria in cells at substantially higher concentrations starting from 0.1 mg/ml (Fig. 2C). […] In particular, treatment with 50 µg/ml gA caused about 80% cell death, while [Glu1]gA provoked only about 15% cell death. […] The increased effective concentrations of the [Glu1]gA in cell culture with respect to those with isolated mitochondria (Fig. 1) could be attributed to poor peptide permeation through plasma membrane.
Confocal images of cultured renal cells loaded with TMRE in control (A) and after treatment with 0.01 mg/ml [Glu1]gA (B). Diagram (C) presents the mean intensity of TMRE fluorescence through 10 confocal images for each [Glu1]gA (solid bars) or gA (hatched bars) concentration.
Kidneys were excised aseptically from 3–7 day old rats, then homogenized and placed in balanced Hanks solution at pH 7.4. After several washes the dispensed tissue was placed in 0.1% collagenase and incubated for 20–30 min at 37°C. Large pieces were removed, and cells were sedimented by gentle centrifugation (50 g) for 3 min. The pellet was resuspended in DMEM/F-12 1:1 containing 10% fetal calf serum (FCS) and seeded in culture plates and glass-bottom dishes. Cells were cultivated in a CO2 (5%) incubator for 1–2 days before the experiments. The gA or [Glu1]gA solution was added to the cultured epithelial cells to appropriate concentration and incubated for 10 min at 37°C in DMEM/F-12 medium containing 10 mM Hepes-NaOH. Next, cells were incubated with 100 nM TMRE (Invitrogen, USA) or 1 µM Lysotracker Green (Invitrogen, USA) for 30 min followed by washing in DMEM/F-12. Then renal tubular epithelial cells were imaged with an LSM510 inverted confocal microscope (Carl Zeiss Inc., Jena, Germany). Analysis of fluorochrome incorporation was performed in glass-bottom dishes (MatTek Corp., USA) with excitation at 488 and 543 nm and emission collected at 510–530 and 560–590 nm, for Lysotracker and TMRE, correspondingly. To minimize the contribution of photo-induced mitochondria/cell damage to the relative fluorescence intensities, image analysis was performed on the average of the first four scans only. Images were processed using ImageJ software (NIH, Bethesda, MD, USA).

[2] = Single-channel recordings on planar bilayer lipid membrane; conditions: DPhPC/decane BLM, 100 mM HCl; for single-channel conductance: from current histograms
Method: Proton channels formed by gA can be observed by measuring electric current across a planar bilayer lipid membrane (BLM), if the experiments are performed in the acidic pH range [19], [20], [26], [50]. Figure 6 presents typical recordings of fluctuations of transmembrane current induced by gA and [Glu1]gA (panels A and D of Fig. 6) which were obtained under the same conditions. The single-channel conductance of [Glu1]gA (150 pS) was close to that of gA (140 pS) as judged from the current histograms (panels B and E), while the single-channel lifetime of the analogue (about 16 ms as estimated from the exponential fit to open channel duration histogram, panel F of Fig. 6) was much shorter than that of gA (116 ms, panel C).
Figure 6 Single-channel recordings (A, D) and the corresponding current histograms (B, E) of gramicidin A ([…], A, B, and C) and [Glu1]gA (2 nanogram/ml, D, E, and F) at a voltage of 100 mV applied to the DPhPC/decane membrane. The solution was 100 mM HCl. (C, F) Open state duration histograms fitted by a single exponential with a time constant of 116 ms (C) and 16 ms (F). The records were filtered at 100 Hz (A, B, and C) or 1000 Hz (D, E, and F).
(§2) Planar bilayer lipid membranes (BLM) were formed from a 2% solution of diphytanoylphosphatidylcholine (DPhPC) (Avanti Polar Lipids, Alabaster, AL) in n-decane on a hole in a Teflon partition (0.5-mm diameter) separating two compartments of a cell containing aqueous buffer solutions [64].The electric current (I) was recorded under voltage-clamp conditions. Voltage was applied to BLMs with Ag-AgCl electrodes placed directly into the cell. The current measured by means of a patch-clamp amplifier (Warner Instruments, Hamden, CT, model BC-525C) was digitized using an NI-DAQmx (National Instruments, Austin, TX) and analyzed with a personal computer with the use of WinWCP Strathclyde Electrophysiology Software designed by J. Dempster (University of Strathclyde, UK).

[3] = test system: rat liver mitochondria (inner mitochondrial membrane potential); assay: Mitochondrial membrane potential measured by safranine O fluorescence; conditions: for decrease of mitochondrial membrane potential: isolated rat liver mitochondria 0.4 mg/ml protein, 5 mM succinate + 1 µM rotenone, 5 nM (about 10 nanogram/ml) peptide, safranine O 10 µM, pH 7.4; for series of the uncoupling potency (relative drop in membrane potential, concentration dependence): isolated rat liver mitochondria, measured at 300 s after peptide addition, safranine O
Method: To assess the effect of gramicidin derivatives on the mitochondrial membrane potential, we assayed the latter with the potential-dependent dye safranine O. The fluorescence of this dye (at a high concentration) is known to drop with increasing the mitochondrial membrane potential and rise upon the addition of protonophores [42], [47].
Control, no other additions. gA, [Glu1]gA, [Glu3]gA, [Lys1]gA, and [Lys3]gA show traces after the addition of 5 nM (i.e. about 10 nanogram/ml) of a corresponding peptide at t = 0 s. Trace “excess [Glu1]gA” was measured with 1 µg/ml peptide. Panel B. Dose dependence of the effect of [Glu1]gA on mitochondrial membrane potential.
Experiments were performed on outbred white male rats (180–200 g) fed ad libitum. […] Rat liver mitochondria were isolated by differential centrifugation [60] in a medium containing 250 mM sucrose, 10 mM MOPS, 1 mM EGTA, and bovine serum albumin (0.1 mg/ml), pH 7.4. The final washing was preformed in the medium of the same composition. Protein concentration was determined using bicinchoninic acid as described in [61].
Safranine O (10 µM) was used as a membrane potential probe [42]. Fluorescence intensity at 580 nm (excitation at 520 nm) was measured with a Panorama Fluorat 02 spectrofluorimeter (Lumex, Russia). The medium for measurements contained 300 mM sucrose, 20 mM MOPS, 0.5 mM EDTA, 0.5 mg/ml BSA, pH 7.4. Mitochondrial protein concentration was 0.4 mg/ml.

[4] = Dissipation of pH gradient in pyranine-loaded liposomes; conditions: 2 µg/ml peptide
Method: Figure 5 Dissipation of the pH gradient on membranes of pyranine-loaded liposomes by gA and [Glu1]gA (both 2 µg/ml). Inner liposomal pH was estimated from pyranine fluorescence intensity measured at 505 nm upon excitation at 455 nm. Nigericin (1 µM) was added at 400–420 s to equilibrate the pH. Control, a record without peptides.
The lumenal pH of the liposomes was assayed with pyranine as described in [11] by a slightly modified procedure of [63]. To prepare pyranine-loaded liposomes, lipids (5 mg egg yolk phosphatidylcholine and 1 mg cholesterol) in a chloroform suspension were dried in a round-bottom flask under a stream of nitrogen. The lipids were then resuspended in buffer (100 mM KCl, 20 mM MES, 20 mM MOPS, 20 mM Tricine titrated with KOH to pH 6.0) containing 0.5 mM pyranine. The suspension was vortexed and then freeze-thawed three times. Unilamellar liposomes were prepared by extrusion through 0.1-µm-pore size Nucleopore polycarbonate membranes using an Avanti Mini-Extruder. The unbound pyranine was then removed by passage through a Sephadex G-50 coarse column equilibrated with the same buffer solution. […] The pH was estimated from the intensities of fluorescence measured at 505 nm upon excitation at 455 nm, as monitored with the Panorama Fluorat 02 spectrofluorimeter. At the end of each recording, 1 µM nigericin was added to dissipate the remaining pH gradient.

[5] = test system: lysosomes of rat kidney cells; assay: Lysosome integrity and pH gradient by Lysotracker Green; format: cell-based; conditions: 0.1 mg/ml peptide, 1 µM Lysotracker Green
Method: In further experiments, we tested the interaction of [Glu1]gA with lysosomes of rat kidney cells by using the dye Lysotracker Green known to accumulate in highly acidic interior of lysosomes. […] Thus, [Glu1]gA appeared to interact specifically with mitochondrial membranes leading to their partial depolarization.
Figure 4 Micrographs of rat kidney cell culture loaded with Lysotracker Green in the absence (A), and in the presence of 0.1 mg/ml (B) of [Glu1]gA.
Kidneys were excised aseptically from 3–7 day old rats, then homogenized and placed in balanced Hanks solution at pH 7.4. After several washes the dispensed tissue was placed in 0.1% collagenase and incubated for 20–30 min at 37°C. Large pieces were removed, and cells were sedimented by gentle centrifugation (50 g) for 3 min. The pellet was resuspended in DMEM/F-12 1:1 containing 10% fetal calf serum (FCS) and seeded in culture plates and glass-bottom dishes. Cells were cultivated in a CO2 (5%) incubator for 1–2 days before the experiments. The gA or [Glu1]gA solution was added to the cultured epithelial cells to appropriate concentration and incubated for 10 min at 37°C in DMEM/F-12 medium containing 10 mM Hepes-NaOH. […] To minimize the contribution of photo-induced mitochondria/cell damage to the relative fluorescence intensities, image analysis was performed on the average of the first four scans only. […]

[6] = Induction of electrical current across planar BLM with and without liposomes; conditions: for effect of liposomes on induction of BLM current: liposomes 1 µg/ml DPhPC, peptide and liposomes at one side, gA 2 nanogram/ml, [Glu1]gA 200 nanogram/ml, 100 mM KCl, 10 mM Tris, 10 mM MES, pH 7.0, 50 mV
Text: The difference in efficacy of gA and [Glu1]gA described here in a variety of systems could be associated with different abilities of the peptides to redistribute between membrane structures and/or their diverse permeability through membranes. To cause a reduction of an electrical potential difference across the inner mitochondrial membrane, peptide molecules must penetrate through the outer membrane in the case of isolated mitochondria, and additionally through the plasma membrane in the case of cells. While encountering with a series of membrane structures, e.g. endosomes, on their way from the plasma to the mitochondrial membrane, peptides may undergo numerous cycles of membrane binding and desorption. To study such a process in a model system, we measured the effect of liposome addition on the time course of the induction of electrical current across a planar BLM by gA and [Glu1]gA. In these experiments we added liposomes and peptides at one side of BLM in order to mimic the addition of the peptides to mitochondria and cells.
Figure 7 Effect of liposomes (1 µg/ml DPhPC) on the induction of electrical current on planar lipid bilayer by gA (2 nanogram/ml, panel A) and [Glu1]gA (200 nanogram/ml, panel B). The peptides and liposomes were added at one side of the membrane. The solution was 100 mM KCl, 10 mM Tris, 10 mM MES, pH = 7.0, BLM voltage was 50 mV.
as §2, with “Voltage was applied to BLMs with Ag-AgCl electrodes placed directly into the cell.” left out

[7] = test system: rat liver mitochondria; assay: Respiration of isolated mitochondria (Clark-type oxygen electrode); conditions: 25°C, pH 7.4, 100 nM = 200 nanogram/ml, data not shown
[8] = test system: cultured renal tubular cells; assay: MTT cell viability test; format: cell-based; conditions: 24 h
Method: as §1
Figure 3 Viability of cultured renal cells according to the MTT test after 24 h treatment with appropriate concentration of [Glu1]gA or gA in culture medium without serum. Experiments were performed 2 times in which 10 wells per each concentration were analyzed.
Cell viability was evaluated by a widely used methyl thiazol tetrazolium (MTT) test. […] Then the dye solution was removed, 50 µl DMSO per well was added and absorbance at 540 nm was measured. Experiments were performed twice in which 10 wells per each concentration were analyzed.

HCO-EGALAVVVWLWLWLW-NH(CH2)2OH [[Glu1]gA]
effective concentrations in cells relative to isolated mitochondria ([1]; cells versus isolated mitochondria): higher in cells than in mitochondria by three orders of magnitude | depolarizing concentrations in cell culture relative to gA ([1]; mitochondria in cell culture): by an order of magnitude lower than those of gA | decrease in the mitochondrial membrane potential (TMRE fluorescence) ([1]; rat kidney cell culture, 10 µg/ml (about 5 µM) peptide, 10 min at 37°C, then 100 nM TMRE 30 min): more than a two-fold decrease | depolarization of mitochondria in cells ([1]; rat kidney cells, 0.1 mg/ml peptide): maximal depolarization of mitochondria | single-channel conductance ([2]; 100 mV): 150 pS | concentration required to observe single channels, relative to gA ([2]; symmetrical addition): much higher (approx. by two orders of magnitude) | decrease of mitochondrial membrane potential [3]: most efficient in decreasing the mitochondrial membrane potential | series of the uncoupling potency (relative drop in membrane potential, concentration dependence) [3]: [Glu1]gA > = gA > [Glu3]gA > [Lys3]gA > [Lys1]gA | rate of pH gradient dissipation (enhancement of liposome-entrapped pyranine fluorescence) [4]: slower than that provoked by the parent peptide gA | lysosome integrity and pH gradient across lysosomal membranes (Lysotracker fluorescence intensity) [5]: No change | effect of liposomes on induction of BLM current [6]: accelerated many fold the induction of the current | concentration required to induce current similar to that of gA, one-sided addition ([6]; planar BLM, peptide added from one side of the membrane): about two orders of magnitude higher | concentration stimulating mitochondrial respiration up to the level of fully uncoupled respiration [7]: higher than 100 nM

gramicidin A [gA, reference compound]
concentration from which mitochondria in cells are depolarized ([1]; rat kidney cell culture, TMRE): ≥ 0.1 mg/mL | single-channel lifetime (open state duration, single-exponential time constant) ([2]; 100 mV): 116 ms | single-channel conductance ([2]; 100 mV): 140 pS | decrease of mitochondrial membrane potential [3]: most efficient in decreasing the mitochondrial membrane potential | series of the uncoupling potency (relative drop in membrane potential, concentration dependence) [3]: [Glu1]gA > = gA > [Glu3]gA > [Lys3]gA > [Lys1]gA | cell death (MTT) ([8]; 50 µg/ml peptide, DMEM/F12 without serum, 2 experiments, 10 wells per concentration): about 80% | concentration limit to which certain toxicity is seen (MTT) ([8]; medium without serum): ≥ 100 ng/mL | effect of liposomes on induction of BLM current [6]: somewhat slower in the presence of liposomes

HCO-VGKLAVVVWLWLWLW-NH(CH2)2OH [[Lys3]gA]
series of the uncoupling potency (relative drop in membrane potential, concentration dependence) [3]: [Glu1]gA > = gA > [Glu3]gA > [Lys3]gA > [Lys1]gA

HCO-KGALAVVVWLWLWLW-NH(CH2)2OH [[Lys1]gA]
series of the uncoupling potency (relative drop in membrane potential, concentration dependence) [3]: [Glu1]gA > = gA > [Glu3]gA > [Lys3]gA > [Lys1]gA

HCO-VGELAVVVWLWLWLW-NH(CH2)2OH [[Glu3]gA]
series of the uncoupling potency (relative drop in membrane potential, concentration dependence) [3]: [Glu1]gA > = gA > [Glu3]gA > [Lys3]gA > [Lys1]gA
